{"source": "paper PMC10176470", "about": "“Engaging a Non-catalytic Cysteine Residue Drives Potent and Selective Inhibition of Caspase-6” (Journal of the American Chemical Society, 2023)", "format_in_all_cases": "cell-based", "key": {"[1]": {"biological_target": "T1, proteins of HEK293T cells transiently overexpressing caspase-6 (Homo sapiens, UniProt P09936)", "T1 sequence (P09936 1-223)": "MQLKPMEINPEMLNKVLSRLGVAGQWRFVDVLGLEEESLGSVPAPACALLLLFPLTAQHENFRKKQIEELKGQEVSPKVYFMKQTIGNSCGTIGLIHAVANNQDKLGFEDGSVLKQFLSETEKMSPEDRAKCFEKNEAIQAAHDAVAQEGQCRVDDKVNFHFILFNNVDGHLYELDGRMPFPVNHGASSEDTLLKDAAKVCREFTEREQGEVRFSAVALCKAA", "conditions": "protein UCHL1 (P09936)"}, "[2]": {"biological_target": "proteins of HEK293T cells transiently overexpressing caspase-6 (Homo sapiens, UniProt P37802)", "sequence (P37802 whole entry)": "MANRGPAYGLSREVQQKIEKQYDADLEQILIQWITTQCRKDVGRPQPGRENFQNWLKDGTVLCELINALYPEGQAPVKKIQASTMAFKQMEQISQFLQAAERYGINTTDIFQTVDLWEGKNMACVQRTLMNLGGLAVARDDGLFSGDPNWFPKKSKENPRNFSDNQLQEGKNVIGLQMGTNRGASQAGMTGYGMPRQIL", "conditions": "exp_ref Probe; protein TAGLN2 (P37802); analysis C6"}, "[3]": {"biological_target": "proteins of HEK293T cells transiently overexpressing caspase-6 (Homo sapiens, UniProt O00571)", "sequence (O00571 whole entry)": "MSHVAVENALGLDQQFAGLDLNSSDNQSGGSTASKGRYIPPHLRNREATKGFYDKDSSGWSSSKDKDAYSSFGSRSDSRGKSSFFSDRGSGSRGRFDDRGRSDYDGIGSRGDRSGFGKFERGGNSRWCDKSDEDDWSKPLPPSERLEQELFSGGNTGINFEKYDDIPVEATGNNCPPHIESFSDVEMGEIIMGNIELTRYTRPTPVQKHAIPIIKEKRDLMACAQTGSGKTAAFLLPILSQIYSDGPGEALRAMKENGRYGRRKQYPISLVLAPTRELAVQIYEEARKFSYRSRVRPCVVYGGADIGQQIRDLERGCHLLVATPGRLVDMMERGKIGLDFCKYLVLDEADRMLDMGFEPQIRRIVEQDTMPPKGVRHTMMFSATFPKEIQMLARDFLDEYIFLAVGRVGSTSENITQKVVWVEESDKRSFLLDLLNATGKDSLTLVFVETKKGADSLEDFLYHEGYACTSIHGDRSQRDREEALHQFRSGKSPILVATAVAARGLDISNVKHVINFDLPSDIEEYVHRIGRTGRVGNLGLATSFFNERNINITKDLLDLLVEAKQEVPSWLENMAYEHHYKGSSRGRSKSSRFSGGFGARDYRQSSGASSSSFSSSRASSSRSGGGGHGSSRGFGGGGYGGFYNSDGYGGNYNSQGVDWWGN", "conditions": "exp_ref Probe; protein DDX3X (O00571); analysis C6"}, "[4]": {"biological_target": "T2, proteins of HEK293T cells transiently overexpressing caspase-6 (Homo sapiens, UniProt P14324)", "T2 sequence (P14324 1-419)": "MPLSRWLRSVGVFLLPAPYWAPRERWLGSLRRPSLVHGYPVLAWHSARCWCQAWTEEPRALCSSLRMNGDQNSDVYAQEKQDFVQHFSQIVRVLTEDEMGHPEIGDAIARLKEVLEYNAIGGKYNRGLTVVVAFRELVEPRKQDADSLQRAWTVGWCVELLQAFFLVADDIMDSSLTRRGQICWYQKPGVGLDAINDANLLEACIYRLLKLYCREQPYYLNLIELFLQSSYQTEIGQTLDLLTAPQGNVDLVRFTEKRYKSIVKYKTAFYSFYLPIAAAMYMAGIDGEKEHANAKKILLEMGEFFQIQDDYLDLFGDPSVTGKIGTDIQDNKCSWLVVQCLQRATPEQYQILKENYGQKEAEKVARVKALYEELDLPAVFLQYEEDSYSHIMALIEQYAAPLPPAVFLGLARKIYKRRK", "conditions": "Probe; protein FDPS P14324"}, "[5]": {"biological_target": "proteins of HEK293T cells transiently overexpressing caspase-6 (Homo sapiens, UniProt Q04917)", "sequence (Q04917 whole entry)": "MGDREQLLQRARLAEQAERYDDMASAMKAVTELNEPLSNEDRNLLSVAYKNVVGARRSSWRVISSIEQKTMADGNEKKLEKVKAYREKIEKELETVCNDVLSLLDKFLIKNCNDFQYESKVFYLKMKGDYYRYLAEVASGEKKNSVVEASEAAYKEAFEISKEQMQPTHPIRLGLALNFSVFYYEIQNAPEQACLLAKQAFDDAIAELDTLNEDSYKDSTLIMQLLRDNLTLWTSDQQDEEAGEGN", "conditions": "Probe; protein YWHAH Q04917"}, "[6]": {"biological_target": "proteins of HEK293T cells transiently overexpressing caspase-6 (Homo sapiens, UniProt P11388)", "sequence (P11388 whole entry)": "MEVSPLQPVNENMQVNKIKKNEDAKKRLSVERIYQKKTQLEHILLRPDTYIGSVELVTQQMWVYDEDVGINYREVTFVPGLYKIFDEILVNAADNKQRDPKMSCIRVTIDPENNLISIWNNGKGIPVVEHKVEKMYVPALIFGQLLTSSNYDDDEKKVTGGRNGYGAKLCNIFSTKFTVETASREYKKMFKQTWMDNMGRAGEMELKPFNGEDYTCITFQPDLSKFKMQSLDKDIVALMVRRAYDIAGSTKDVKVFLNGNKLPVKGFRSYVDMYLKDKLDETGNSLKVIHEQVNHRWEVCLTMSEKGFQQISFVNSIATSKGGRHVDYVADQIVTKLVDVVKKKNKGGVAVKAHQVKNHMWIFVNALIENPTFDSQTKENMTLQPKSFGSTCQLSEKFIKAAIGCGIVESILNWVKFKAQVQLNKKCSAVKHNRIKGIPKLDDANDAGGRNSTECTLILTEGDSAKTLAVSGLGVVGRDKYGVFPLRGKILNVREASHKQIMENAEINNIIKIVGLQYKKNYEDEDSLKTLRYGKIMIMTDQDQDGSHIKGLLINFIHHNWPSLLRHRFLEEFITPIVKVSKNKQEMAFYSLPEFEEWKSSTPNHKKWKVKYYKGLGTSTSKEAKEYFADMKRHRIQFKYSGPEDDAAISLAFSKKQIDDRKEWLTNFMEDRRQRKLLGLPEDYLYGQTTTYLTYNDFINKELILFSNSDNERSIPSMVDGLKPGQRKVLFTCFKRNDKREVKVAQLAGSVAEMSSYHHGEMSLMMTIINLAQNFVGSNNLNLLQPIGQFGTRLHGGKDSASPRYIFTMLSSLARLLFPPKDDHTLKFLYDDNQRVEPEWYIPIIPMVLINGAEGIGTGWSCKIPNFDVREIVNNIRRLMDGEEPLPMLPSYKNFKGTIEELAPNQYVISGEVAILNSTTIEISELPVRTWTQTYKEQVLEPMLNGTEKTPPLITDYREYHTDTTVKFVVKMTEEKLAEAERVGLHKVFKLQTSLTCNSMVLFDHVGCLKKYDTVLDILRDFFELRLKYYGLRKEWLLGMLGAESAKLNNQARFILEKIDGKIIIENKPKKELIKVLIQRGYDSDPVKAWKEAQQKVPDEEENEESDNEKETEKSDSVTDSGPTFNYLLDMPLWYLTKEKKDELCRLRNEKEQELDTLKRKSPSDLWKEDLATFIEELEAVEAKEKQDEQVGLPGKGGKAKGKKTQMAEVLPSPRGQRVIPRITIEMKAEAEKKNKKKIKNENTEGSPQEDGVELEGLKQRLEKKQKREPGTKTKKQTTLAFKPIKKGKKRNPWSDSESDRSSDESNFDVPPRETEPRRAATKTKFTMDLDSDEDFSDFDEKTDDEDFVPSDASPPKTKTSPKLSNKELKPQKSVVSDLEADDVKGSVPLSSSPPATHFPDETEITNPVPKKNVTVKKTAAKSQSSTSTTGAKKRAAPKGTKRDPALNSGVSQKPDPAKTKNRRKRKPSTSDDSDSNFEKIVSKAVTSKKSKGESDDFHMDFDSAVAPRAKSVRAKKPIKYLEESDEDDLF", "conditions": "protein TOP2A (P11388)"}, "[7]": {"biological_target": "proteins of HEK293T cells transiently overexpressing caspase-6 (Homo sapiens, UniProt Q07812)", "sequence (Q07812 whole entry)": "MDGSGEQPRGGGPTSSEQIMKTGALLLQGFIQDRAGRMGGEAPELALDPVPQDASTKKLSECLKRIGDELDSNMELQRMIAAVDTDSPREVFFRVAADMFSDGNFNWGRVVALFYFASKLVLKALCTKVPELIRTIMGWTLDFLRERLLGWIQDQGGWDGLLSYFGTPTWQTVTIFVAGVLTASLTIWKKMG", "conditions": "Probe; protein BAX Q07812"}, "[8]": {"biological_target": "proteins of HEK293T cells transiently overexpressing caspase-6 (Homo sapiens, UniProt P13804)", "sequence (P13804 20-333)": "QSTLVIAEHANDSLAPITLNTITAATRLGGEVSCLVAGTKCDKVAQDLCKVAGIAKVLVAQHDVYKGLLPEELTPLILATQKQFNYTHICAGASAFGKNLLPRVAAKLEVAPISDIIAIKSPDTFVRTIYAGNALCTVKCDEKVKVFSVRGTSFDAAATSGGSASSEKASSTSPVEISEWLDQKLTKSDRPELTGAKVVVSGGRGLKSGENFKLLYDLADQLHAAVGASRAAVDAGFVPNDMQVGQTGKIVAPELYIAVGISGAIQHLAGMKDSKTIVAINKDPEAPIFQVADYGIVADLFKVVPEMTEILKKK", "conditions": "exp_ref Probe; protein ETFA (P13804); analysis C6"}, "[9]": {"biological_target": "proteins of HEK293T cells transiently overexpressing caspase-6 (Homo sapiens, UniProt P60174)", "sequence (P60174 whole entry)": "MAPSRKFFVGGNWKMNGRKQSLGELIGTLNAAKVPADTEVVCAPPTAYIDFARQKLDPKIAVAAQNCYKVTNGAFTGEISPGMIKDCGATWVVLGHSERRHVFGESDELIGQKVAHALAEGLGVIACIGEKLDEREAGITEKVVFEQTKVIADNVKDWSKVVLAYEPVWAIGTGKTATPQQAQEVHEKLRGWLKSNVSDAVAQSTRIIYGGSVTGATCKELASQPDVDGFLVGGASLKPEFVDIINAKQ", "conditions": "exp_ref Probe; protein TPI1 (P60174); analysis C6"}, "[10]": {"biological_target": "T3, proteins of HEK293T cells transiently overexpressing caspase-6 (Homo sapiens, UniProt O43175)", "T3 sequence (O43175 1-533)": "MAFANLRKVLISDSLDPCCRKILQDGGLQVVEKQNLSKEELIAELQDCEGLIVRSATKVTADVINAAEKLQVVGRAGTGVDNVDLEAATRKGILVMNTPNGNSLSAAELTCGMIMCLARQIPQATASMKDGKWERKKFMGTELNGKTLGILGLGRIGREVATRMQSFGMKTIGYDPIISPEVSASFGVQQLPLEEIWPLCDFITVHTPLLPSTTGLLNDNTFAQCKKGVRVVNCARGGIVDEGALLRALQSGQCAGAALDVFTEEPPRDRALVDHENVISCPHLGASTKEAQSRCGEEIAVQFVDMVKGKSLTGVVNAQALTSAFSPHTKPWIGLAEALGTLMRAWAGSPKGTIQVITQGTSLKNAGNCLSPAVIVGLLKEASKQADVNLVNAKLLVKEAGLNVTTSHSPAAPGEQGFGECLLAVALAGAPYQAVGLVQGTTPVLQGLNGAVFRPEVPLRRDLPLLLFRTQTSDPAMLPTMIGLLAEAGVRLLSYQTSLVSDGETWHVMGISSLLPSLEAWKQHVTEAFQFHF", "conditions": "protein PHGDH (O43175)"}, "[11]": {"biological_target": "proteins of HEK293T cells transiently overexpressing caspase-6 (Homo sapiens, UniProt Q9Y230)", "sequence (Q9Y230 whole entry)": "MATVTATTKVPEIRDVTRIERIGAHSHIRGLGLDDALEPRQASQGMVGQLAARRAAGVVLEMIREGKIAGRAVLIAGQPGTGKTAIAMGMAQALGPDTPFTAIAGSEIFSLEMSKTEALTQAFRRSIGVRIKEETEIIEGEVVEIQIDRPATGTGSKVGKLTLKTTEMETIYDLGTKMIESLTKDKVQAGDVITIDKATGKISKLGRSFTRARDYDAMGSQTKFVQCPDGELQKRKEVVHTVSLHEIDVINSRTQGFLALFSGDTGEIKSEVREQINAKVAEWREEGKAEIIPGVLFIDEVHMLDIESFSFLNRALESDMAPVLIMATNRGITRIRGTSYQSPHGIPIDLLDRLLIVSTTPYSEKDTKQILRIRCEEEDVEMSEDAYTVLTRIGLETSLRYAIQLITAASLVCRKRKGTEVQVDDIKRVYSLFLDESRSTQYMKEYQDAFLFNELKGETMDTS", "conditions": "protein RUVBL2 (Q9Y230); exp_ref Probe; analysis C6"}, "[12]": {"biological_target": "proteins of HEK293T cells transiently overexpressing caspase-6 (Homo sapiens, UniProt P49023)", "sequence (P49023 whole entry)": "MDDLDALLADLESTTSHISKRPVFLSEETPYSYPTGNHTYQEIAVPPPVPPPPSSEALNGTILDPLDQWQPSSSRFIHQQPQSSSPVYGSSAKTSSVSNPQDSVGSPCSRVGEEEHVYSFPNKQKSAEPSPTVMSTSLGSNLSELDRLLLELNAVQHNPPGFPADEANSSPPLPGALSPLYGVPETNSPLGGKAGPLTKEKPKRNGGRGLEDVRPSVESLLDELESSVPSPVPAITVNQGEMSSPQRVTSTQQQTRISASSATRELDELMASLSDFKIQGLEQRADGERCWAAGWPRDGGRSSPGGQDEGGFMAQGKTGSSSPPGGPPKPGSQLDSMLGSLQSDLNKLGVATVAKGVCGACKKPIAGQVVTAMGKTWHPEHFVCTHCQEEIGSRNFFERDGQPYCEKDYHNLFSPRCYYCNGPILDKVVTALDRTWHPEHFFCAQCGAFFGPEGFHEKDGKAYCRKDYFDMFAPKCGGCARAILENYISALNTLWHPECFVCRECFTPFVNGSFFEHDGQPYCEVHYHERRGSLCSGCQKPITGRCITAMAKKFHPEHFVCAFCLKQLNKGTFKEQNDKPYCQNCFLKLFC", "conditions": "Probe; protein PXN P49023"}}, "data": [{"smiles": "C#CCOc1ccc([C@@H]2C[C@@H](C(=O)Nc3ccc(OC(F)(F)F)cc3)CN(S(=O)(=O)C=C)C2)cc1", "note": "(relative stereo) [13-t]", "values": [{"measurement": "enrich.exp.med.lin", "setting": "[1]", "value": 3.454}, {"measurement": "enrich.exp.med.log2", "setting": "[1]", "value": 1.788}, {"measurement": "enrich.exp.med", "setting": "[1]; exp_ref Probe, analysis C6", "value": 1.788}, {"measurement": "enrich.exp.med", "setting": "[2]", "value": 0.7525}, {"measurement": "enrich.exp.med", "setting": "[3]", "value": 0.1246}, {"measurement": "enrich.exp.med", "setting": "[4]", "value": -1.278}, {"measurement": "enrich.exp.med", "setting": "[5]", "value": -1.452}, {"measurement": "enrich.exp.med.lin", "setting": "[6]", "value": 3.929}, {"measurement": "enrich.exp.med.log2", "setting": "[6]", "value": 1.974}, {"measurement": "enrich.exp.med", "setting": "[6]; exp_ref Probe, analysis C6", "value": 1.974}, {"measurement": "enrich.exp.med", "setting": "[7]", "value": -2.1832}, {"measurement": "enrich.exp.med", "setting": "[8]", "value": 0.5734}, {"measurement": "enrich.exp.med", "setting": "[9]", "value": 0.1365}, {"measurement": "enrich.exp.med", "setting": "[10]; exp_ref Probe, analysis C6", "value": 1.1798}, {"measurement": "enrich.exp.med.lin", "setting": "[10]", "value": 2.265}, {"measurement": "enrich.exp.med.log2", "setting": "[10]", "value": 1.1798}, {"measurement": "enrich.exp.med", "setting": "[11]", "value": 1.2493}, {"measurement": "enrich.exp.med", "setting": "[12]", "value": -1.7768}]}]}
